Measured values reported in ChEMBL document CHEMBL1133405, “Design and synthesis of functionalized glycomers as non-peptidic ligands for SH2 binding and as inhibitors of A-431 human epidermoid and HT-29 colon carcinoma cell lines” (Bioorg Med Chem Lett, 2000).

Key:
A-431 = assay: Cytotoxicity measured for the growth inhibition of A-431 Human epidermoid carcinoma cell line; type: functional, cell-based
HT-29 = assay: Cytotoxicity of compound was measured for the growth inhibition of HT-29 human colon carcinoma cell line; type: functional, cell-based
[1] = molecular target: Growth factor receptor-bound protein 2 (Homo sapiens) (UniProt P62993); assay: Compound was evaluated for the inhibitory activity against Growth factor receptor bound protein 2 SH2 at a concentration of 100 uM
Sequence of Growth factor receptor-bound protein 2 (Homo sapiens) (P62993 whole entry, looked up): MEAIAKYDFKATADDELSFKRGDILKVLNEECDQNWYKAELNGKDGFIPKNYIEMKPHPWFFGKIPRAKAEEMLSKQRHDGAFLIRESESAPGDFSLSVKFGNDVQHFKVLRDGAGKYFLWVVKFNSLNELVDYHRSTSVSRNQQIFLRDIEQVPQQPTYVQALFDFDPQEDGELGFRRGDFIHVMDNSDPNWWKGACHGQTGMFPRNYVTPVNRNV

| Compound | IC50 (A-431) [µM] | IC50 (HT-29) [µM] | inhibition [1] [%] |
| --- | --- | --- | --- |
| C=CCO[C@@H]1[C@H](O)[C@H](Oc2ccc(I)cc2)O[C@@H](COC(=O)c2ccccc2)[C@H]1O | > 50 | > 50 | – |
| C=CCO[C@@H]1[C@H](O)[C@H](Oc2ccc(I)cc2)O[C@@H](COCc2ccc(OC)cc2)[C@H]1O | 10.6 | 19.7 | – |
| CCCO[C@H]1[C@H](O)[C@H](COS(=O)(=O)c2cccc(C(F)(F)F)c2)O[C@@H](Oc2ccc(OP(=O)(O)O)cc2)[C@H]1OC(C)=O [GLYCOMER] | 38.8 | 35.5 | – |
| C=CCO[C@H]1[C@H](O)[C@H](COS(=O)(=O)c2ccc3ccccc3c2)O[C@@H](Oc2ccc(I)cc2)[C@H]1OC(C)=O | 5.2 | 11.6 | – |
| C=CCO[C@H]1[C@H](O)[C@H](COS(=O)(=O)c2cccs2)O[C@@H](Oc2ccc(I)cc2)[C@H]1OC(C)=O | 12.8 | – | 30 |
| NC(=O)OCCO[C@@H]1[C@H](O)[C@H](Oc2ccc(I)cc2)O[C@@H](COS(=O)(=O)c2ccc3ccccc3c2)[C@H]1O | 9.1 | 23.1 | – |
| C=CCO[C@@H]1[C@H](O)[C@H](Oc2ccc(I)cc2)O[C@@H](COS(=O)(=O)c2cccc(C(F)(F)F)c2)[C@H]1O | 36.8 | 35.5 | – |
| C=CCO[C@H]1[C@@H](O)[C@H](COS(=O)(=O)c2cccc(C(F)(F)F)c2)O[C@@H](Oc2ccc(I)cc2)[C@H]1OC(=O)C(C)C | 3.3 | 4.2 | 30 |
| O=C(CCc1ccccc1)O[C@@H]1[C@H](Oc2ccc(I)cc2)O[C@@H](COS(=O)(=O)c2cccc(C(F)(F)F)c2)[C@@H](O)[C@@H]1OCCOC(=O)Nc1ccccc1 | 4.52 | 7.15 | 30 |
| CCCO[C@H]1[C@H](O)[C@H](COS(=O)(=O)c2ccc3ccccc3c2)O[C@@H](Oc2ccc(OP(=O)(O)O)cc2)[C@H]1OC(C)=O [GLYCOMER] | > 50 | > 50 | – |
| C=CCO[C@H]1[C@H](O)[C@H](COS(=O)(=O)c2cccc(C(F)(F)F)c2)O[C@@H](Oc2ccc(I)cc2)[C@H]1OC(=O)CC | 2.17 | 4.65 | – |
| C=CCO[C@H]1[C@H](O)[C@H](COS(=O)(=O)c2ccc(Cl)cc2)O[C@@H](Oc2ccc(I)cc2)[C@H]1OC(C)=O | 9.77 | – | – |
| C=CCO[C@@H]1[C@H](O)[C@H](Oc2ccc(I)cc2)O[C@@H](COC(=O)c2ccc3ccccc3c2)[C@H]1O | > 50 | > 50 | – |
| C=CCO[C@H]1[C@H](O)[C@H](COS(=O)(=O)c2cccc(C(F)(F)F)c2)O[C@@H](Oc2ccc(I)cc2)[C@H]1OC(=O)Cc1ccccc1 | 5.15 | 4.95 | – |
| O=C(Nc1ccccc1)OCCO[C@@H]1[C@H](O)[C@H](Oc2ccc(I)cc2)O[C@@H](COS(=O)(=O)c2ccc3ccccc3c2)[C@H]1O | 5.1 | 3.67 | – |
| C=CCO[C@@H]1[C@H](O)[C@H](Oc2ccc(I)cc2)O[C@@H](COC(=O)c2ccc(Cl)cc2)[C@H]1O | 20.5 | 25.2 | – |
| C=CCO[C@@H]1[C@H](O)[C@H](Oc2ccc(I)cc2)O[C@@H](COC(=O)c2ccc(OC)cc2)[C@H]1O | 24.6 | 55.1 | – |
| C=CCO[C@@H]1[C@H](O)[C@H](Oc2ccc(I)cc2)O[C@@H](COS(=O)(=O)c2ccc3ccccc3c2)[C@H]1O | 8.81 | – | – |
| C=CCO[C@H]1[C@H](O)[C@H](COS(=O)(=O)c2cccc(C(F)(F)F)c2)O[C@@H](Oc2ccc(I)cc2)[C@H]1OC(=O)c1ccccc1 | 7 | 7.5 | – |
| C=CCO[C@H]1[C@H](O)[C@H](COS(=O)(=O)c2cccc(C(F)(F)F)c2)O[C@@H](Oc2ccc(I)cc2)[C@H]1OC(C)=O | 6.1 | 23.1 | – |
| C=CCO[C@H]1[C@H](O)[C@H](COS(=O)(=O)c2cccc(C(F)(F)F)c2)O[C@@H](Oc2ccc(I)cc2)[C@H]1OC(=O)CCc1ccccc1 | 2 | 3 | – |
| C=CCO[C@H]1[C@H](O)[C@H](COS(=O)(=O)c2cccc(C(F)(F)F)c2)O[C@H](Oc2ccc(I)cc2)[C@@H]1OC(=O)CCC | 2.6 | 4 | – |
